The results in this text go back to ChEMBL document CHEMBL3098080, “Replacement of amide with bioisosteres led to a new series of potent adenosine A2A receptor antagonists” (Bioorg Med Chem Lett, 2014).

Data set [1] addresses T1, Adenosine receptor A2a (Homo sapiens, UniProt P29274). As to the kind of experiment: Inhibition of adenosine A2A receptor (unknown origin) at 100 umol/L relative to control.
In data set [2] the target is T1, Adenosine receptor A2a. As to the kind of experiment: Displacement of [3H]-ZM241385 from human adenosine A2A receptor expressed in HEK293 cells. It counts as cell-based.
Data set [3] in a line: Chemical stability in 0.2N HCl in methanol after 24 hrs. It counts as physicochemical.

T1 sequence (P29274 whole entry): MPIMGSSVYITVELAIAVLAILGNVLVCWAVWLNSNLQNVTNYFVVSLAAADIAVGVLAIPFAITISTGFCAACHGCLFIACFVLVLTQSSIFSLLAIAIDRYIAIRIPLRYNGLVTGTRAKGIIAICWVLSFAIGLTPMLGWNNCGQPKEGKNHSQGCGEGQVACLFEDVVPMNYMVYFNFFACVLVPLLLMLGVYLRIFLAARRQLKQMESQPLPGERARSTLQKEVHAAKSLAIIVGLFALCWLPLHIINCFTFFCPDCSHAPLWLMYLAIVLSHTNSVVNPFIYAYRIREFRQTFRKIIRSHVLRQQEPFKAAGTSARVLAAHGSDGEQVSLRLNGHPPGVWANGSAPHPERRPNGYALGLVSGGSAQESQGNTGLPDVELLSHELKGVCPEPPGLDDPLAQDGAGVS

Consider `Cc1cc(C)n(-c2nc(Nc3cnccn3)cc(-n3cccn3)n2)n1`, for which the inhibition against Adenosine receptor A2a [1] was 117%. This molecule displayed an inhibition constant Ki at Adenosine receptor A2a [2] of 43 nM.
For the molecule `COC[C@H]1CCCN1c1cc(Nc2cnccn2)nc(-n2nc(C)cc2C)n1`, the inhibition on Adenosine receptor A2a [1] was found to be 124%. In addition, the Stability result in data set [3] is on record as “Stable”. Moreover, at Adenosine receptor A2a [2], the Ki came out at 69 nM.
For the molecule `COC[C@H]1CCCN1c1cc(Nc2ncccn2)nc(-n2nc(C)cc2C)n1`, the inhibition at Adenosine receptor A2a [1] worked out at 71%.
`COC[C@H]1CCCN1c1cc(NC(C)=O)nc(-n2nc(C)cc2C)n1`: the inhibition against Adenosine receptor A2a [1] was 123%. Also, the Ki on Adenosine receptor A2a [2] amounted to 15 nM.
For the molecule `Cc1cc(C)n(-c2nc(Nc3nccs3)cc(-n3cccn3)n2)n1`, the inhibition against Adenosine receptor A2a [1] was 58%.
Turning to `COCCOc1ccc(N2CCN(CCn3ncc4c3nc(N)n3nc(-c5ccco5)nc43)CC2)cc1` [PRELADENANT], the inhibition against Adenosine receptor A2a [1] worked out at 120%. Moreover, the Ki on Adenosine receptor A2a [2] was found to be 1 nM.
Regarding `Cc1cc(C)n(-c2nc(NCC(F)(F)F)cc(-n3cccn3)n2)n1`, the inhibition against Adenosine receptor A2a [1] worked out at 117%. Also, the Ki at Adenosine receptor A2a [2] was 52 nM.
As for `Cc1cc(C)n(-c2nc(Nc3nccs3)cc(N3CCc4ccccc4C3)n2)n1`, at Adenosine receptor A2a [1], the inhibition is 117%. The molecule also showed a Ki on Adenosine receptor A2a [2] of 66 nM.
Take `Cc1cc(C)n(-c2nc(Nc3ccccn3)cc(-n3cccn3)n2)n1`: the inhibition on Adenosine receptor A2a [1] was determined as 117%. On Adenosine receptor A2a [2], this molecule showed a Ki of 9.2 nM.
In the same order, the values of `Cc1cc(C)n(-c2nc(Nc3ccccn3)cc(N3CCc4ccccc4C3)n2)n1` are 95% and 65 nM.
With `Cc1cc(C)n(-c2nc(Nc3ncccn3)cc(N3CCc4ccccc4C3)n2)n1`, on Adenosine receptor A2a [1], the inhibition was -5%.
Take `COC[C@H]1CCCN1c1cc(Nc2nccs2)nc(-n2nc(C)cc2C)n1`: the inhibition on Adenosine receptor A2a [1] turned out to be 123%. Also, the Stability entry in data set [3] is recorded as “Stable”. Moreover, the affinity on Adenosine receptor A2a [2], expressed as Ki, was 9.5 nM.
As to `COC[C@H]1CCCN1c1cc(NCC(F)(F)F)nc(-n2nc(C)cc2C)n1`, the inhibition against Adenosine receptor A2a [1] stood at 115%. Also, the Stability entry in data set [3] was “Stable”. At Adenosine receptor A2a [2], this molecule had a Ki of 24 nM.
Take `Cc1cc(C)n(-c2nc(Nc3ncccn3)cc(-n3cccn3)n2)n1`: the inhibition against Adenosine receptor A2a [1] came to 23%.
On the same count and under the same terms, the value for `Cc1cc(C)n(-c2nc(NCC(F)(F)F)cc(N3CCc4ccccc4C3)n2)n1` was 64%.
Turning to `COC[C@H]1CCCN1c1cc(Nc2ccccn2)nc(-n2nc(C)cc2C)n1`, on Adenosine receptor A2a [1], the inhibition is 124%. Further, the Stability entry in data set [3] is on record as “Stable”. The Ki on Adenosine receptor A2a [2] came to 45 nM.
Regarding `Cc1cc(C)n(-c2nc(Nc3cnccn3)cc(N3CCc4ccccc4C3)n2)n1`, the inhibition at Adenosine receptor A2a [1] amounted to 121%. This molecule had a Ki at Adenosine receptor A2a [2] of 1.1 nM.
